The values below come from patent publication US9012446B2, “Amino-oxazines and amino-dihydrothiazine compounds as beta-secretase modulators and methods of use” (Amgen Inc., priority 2010, dated 2015).

One test addresses BACE (Homo sapiens, UniProt P56817). Briefly: In vitro enzymatic BACE FRET assay. To be noted: average IC50, enzyme assay; read-out: BACE 1 FRET assay. Type of test: biochemical. The method, boiled down:
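Fluorescence […] after Tris quench reports cleavage of a 50 nM quenched peptide substrate over 1 h. Beforehand, 0.2 nM enzyme sits 1 h with inhibitor dilutions. Buffer: 0.05 M acetate pH 4.2, 100 uM genapol, 10% DMSO final.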

The test system of the next test is Aβ40. Description: In vitro BACE cell-based assay (Aβ40 sandwich ELISA, cells stably expressing APP). The note with it: Homo sapiens. The method, boiled down: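 Read-out is Aβ40 in cell supernatants, quantified by sandwich ELISA (capture 3 h, detection 2 h, both 4° C) with Delfia time-resolved fluorescence. Cells stably expressing APP were dosed across 10 concentrations from 100 μM or 10 μM top, 0.1% DMSO final; IC50 fitted from percent of control.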

The next test deals with Abeta 40. Briefly: In vivo inhibition of beta-secretase: Abeta 40 reduction in CSF and brain of the rat. The note with it: after 4 hrs; for inhibition in vivo at 10 mg/kg: 10 mpk. From the text:
In Vivo Inhibition of Beta-Secretase
Several animal models, including mouse, rat, dog, and monkey, may be used to screen for inhibition of beta-secretase activity in vivo following administration of a test compound sample. Animals used in this invention can be wild type, transgenic, or gene knockout animals. For example, the Tg2576 mouse model, prepared and conducted as described in Hsiao et al., 1996, Science 274, 99-102, and other non-transgenic or gene knockout animals are useful to analyze in vivo inhibition of Amyloid beta peptide (Abeta) production in the presence of inhibitory test compounds. Generally, 2 to 18 month old Tg2576 mice, gene knockout mice or non-transgenic animals are administered test compounds formulated in vehicles, such as cyclodextran, phosphate buffers, hydroxypropyl methylcellulose or other suitable vehicles. One to twenty-four hours following the administration of compound, animals are sacrificed, and brains as well as cerebrospinal fluid (CSF) and plasma are removed for analysis of A-beta levels and drug or test compound concentrations (Dovey et al., 2001, Journal of Neurochemistry, 76,173-181) Beginning at time 0, animals are administered by oral gavage, or other means of delivery such as intravenous injection, an inhibitory test compound of up to 100 mg/kg in a standard, conventional formulation, such as 2% hydroxypropyl methylcellulose, 1% Tween80. A separate group of animals receive 2% hydroxypropyl methylcellulose, 1% Tween80 alone, containing no test compound, and serve as a vehicle-control group. At the end of the test period, animals are sacrificed and brain tissues, plasma or cerebrospinal fluid are collected. Brains are either homogenized in 10 volumes (w/v) of 0.2% diethylamine (DEA) in 50 mM NaCl (Best et al., 2005, Journal of Pharmacology and Experimental Therapeutics, 313, 902-908), or in 10 volumes of 0.5% TritonX-100 in Tris-buffered saline (pH at about 7.6). Homogenates are centrifuged at 355,000 g, 4° C. for 30 minutes. CSF or brain supernatants are then analyzed for the presence of A-beta peptide by specific sandwich ELISA assays based on ECL (Electrochemiluminescence) technology. For example, rat Abeta40 is measured using biotinylated-4G8 (Signet) as a capture antibody and Fab40 (an in-house antibody specific to the C-terminal of Abeta40) as a detection antibody. For example, 4 hours after administration of 30 mg/kg oral dose of the test compound in 2% hydroxypropyl methylcellulose, 1% Tween80 (pH2.2) to 200 g male Sprague Dawley rats, amyloid beta peptide levels are measured for reduction by X % and Y % in cerebrospinal fluid and brain, respectively, when compared to the levels measured in the vehicle-treated rats. • Actual vehicles used: Oral: 2% HPMC, 1% Tween80, pH 2.2 • IV: 5% EtOH, 45% Propylene glycol in 5% Dextrose
The compounds of the invention may be shown to reduce the formation and/or deposition of amyloid beta peptide in the cerebrospinal fluid (CSF) as well as in the brain of a mouse or rat at either 3 mpk, 10 mpk or 30 mpk (mpk=mg compound per kg weight of the animal) dosing concentrations after 4 hrs.

Where [1] appears, read: HEK293, average IC50, read-out: HEK cell assay.
Where [2] appears, read: Abeta 40, rat CSF, read-out: % reduction of rat CSF levels at 10 pmk.
[3] abbreviates: Abeta 40, rat brain, read-out: % reduction of rat brain levels at 10 mpk.
Where [4] appears, read: HEK293, average IC50, cell assay, HEK cells.

Like-named read-outs stand apart in the source and are kept apart here.

Chain of BACE (P56817 46-501, species assumed): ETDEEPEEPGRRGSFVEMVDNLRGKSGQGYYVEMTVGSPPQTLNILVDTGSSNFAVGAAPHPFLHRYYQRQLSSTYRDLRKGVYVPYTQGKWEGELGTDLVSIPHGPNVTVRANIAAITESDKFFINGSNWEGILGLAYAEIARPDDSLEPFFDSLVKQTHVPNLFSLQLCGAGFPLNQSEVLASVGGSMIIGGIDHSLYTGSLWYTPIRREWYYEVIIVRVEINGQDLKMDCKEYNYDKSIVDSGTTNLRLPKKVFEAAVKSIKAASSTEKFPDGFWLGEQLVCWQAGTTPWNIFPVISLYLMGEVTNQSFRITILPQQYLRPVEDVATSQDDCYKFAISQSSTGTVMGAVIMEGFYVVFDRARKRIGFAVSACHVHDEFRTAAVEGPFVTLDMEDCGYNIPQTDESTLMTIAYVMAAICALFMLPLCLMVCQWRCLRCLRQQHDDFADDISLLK

`NC1=N[C@@]2(CCO1)c1cc(-c3cncc(F)c3)ccc1Oc1c2cc(-c2ccnc(F)c2)nc1F` [Example 226, (S)-1-fluoro-7-(5-fluoropyridin-3-yl)-3-(2-fluoropyridin-4-yl)-5′,6′-dihydrospiro[chromeno[2,3-c]pyridine-5,4′-[1,3]oxazin]-2′-amine]: the IC50 at BACE stood at 1.4 nM; in the test on Aβ40 (setting [1]) it was 1.6 nM. Further, the inhibition in vivo at 10 mg/kg in the test on Abeta 40 (setting [2]) amounted to 83%; in the test with Abeta 40 (setting [3]), 74%.

Consider `CC1(C#Cc2cnc3c(c2)[C@]2(CCOC(N)=N2)c2cc(-c4cccnc4F)ccc2O3)COC1` [Example 61, (S)-7-(2-fluoropyridin-3-yl)-3-((3-methyloxetan-3-yl)ethynyl)-5′,6′-dihydrospiro[chromeno[2,3-b]pyridine-5,4′-[1,3]oxazin]-2′-amine], for which the IC50 was 2.8 nM on BACE and 2.4 nM in the test with Aβ40 (setting [1]). Further, the inhibition in vivo at 10 mg/kg in the test on Abeta 40 (setting [2]) was 70%; in the test with Abeta 40 (setting [3]) it was 55%.

As for `NC1=N[C@@]2(CCO1)c1cc(-c3cccnc3)ccc1Oc1c2cc(-c2ccnc(F)c2)nc1F` [Example 239, (S)-1-fluoro-3-(2-fluoropyridin-4-yl)-7-(pyridin-3-yl)-5′,6′-dihydrospiro[chromeno[2,3-c]pyridine-5,4′-[1,3]oxazin]-2′-amine], the IC50 was 35 nM on BACE and 16.1 nM in the test with Aβ40 (setting [1]). The inhibition in vivo at 10 mg/kg is 68% in the test with Abeta 40 (setting [2]) and 48% with Abeta 40 (setting [3]).

Consider `CC(C)(C#N)COc1cc2c(cn1)Oc1ccc(-c3cccc(F)c3)cc1[C@@]21COCC(N)=N1` [Example 126, (S)-3-(5′-amino-7-(3-fluorophenyl)-2′,6′-dihydrospiro[chromeno[2,3-c]pyridine-5,3′-[1,4]oxazine]-3-yloxy)-2,2-dimethylpropanenitrile], for which the IC50 stood at 0.4 nM at BACE and 1.5 nM in the test on Aβ40 (setting [4]). Further, the results for the inhibition in vivo at 10 mg/kg in the test on Abeta 40 (setting [2]) and with Abeta 40 (setting [3]) were 25% and 8%, respectively.

Regarding `NC1=N[C@@]2(COC1)c1cc(-c3cccnc3F)ccc1Oc1cnc(-c3ccc(F)c(F)c3)cc12` [Example 73, (5S)-3-(3,4-difluorophenyl)-7-(2-fluoro-3-pyridinyl)-6′H-spiro[chromeno[2,3-c]pyridine-5,3′-[1,4]oxazin]-5′-amine], the IC50 on BACE stood at 0.3 nM; in the test with Aβ40 (setting [4]), 2.7 nM. The results for the inhibition in vivo at 10 mg/kg in the test with Abeta 40 (setting [2]) and in the test with Abeta 40 (setting [3]) were 62% and 42%, respectively.

Regarding `NC1=N[C@@]2(CCO1)c1cc(-c3cccnc3F)ccc1Oc1c(F)cc(N3CCOCC3)cc12` [Example 184, (S)-4′-fluoro-7′-(2-fluoropyridin-3-yl)-2′-morpholino-5,6-dihydrospiro[[1,3]oxazine-4,9′-xanthen]-2-amine], the values for the IC50 on BACE and in the test with Aβ40 (setting [1]) were 4.8 nM and 6.9 nM, respectively. For the same compound, the figures for the inhibition in vivo at 10 mg/kg in the test on Abeta 40 (setting [2]) and in the test with Abeta 40 (setting [3]) were 19% and 12%, respectively.

Turning to `NC1=N[C@@]2(CCO1)c1cc(-c3cccnc3F)ccc1Oc1cnc(C3=CCCOC3)cc12` [Example 153, (S)-3-(5,6-dihydro-2H-pyran-3-yl)-7-(2-fluoropyridin-3-yl)-5′,6′-dihydrospiro[chromeno[2,3-c]pyridine-5,4′-[1,3]oxazin]-2′-amine], the IC50 at BACE worked out at 2 nM; in the test with Aβ40 (setting [4]), 2.6 nM. Besides, the results for the inhibition in vivo at 10 mg/kg in the test with Abeta 40 (setting [2]) and in the test on Abeta 40 (setting [3]) were 78% and 64%, respectively.

As to `NC1=N[C@@]2(CCS1)c1cc(-c3cccnc3F)ccc1Oc1c(F)cc(C3=CCCOC3)cc12` [Example 201, (S)-2′-(5,6-dihydro-2H-pyran-3-yl)-4′-fluoro-7′-(2-fluoropyridin-3-yl)-5,6-dihydrospiro[[1,3]thiazine-4,9′-xanthen]-2-amine], the IC50 at BACE amounted to 1.4 nM; in the test on Aβ40 (setting [1]) it was 9.7 nM. In the test on Abeta 40 (Abeta 40, rat CSF, at 30 mpk), the “% reduction of rat CSF levels” value is given as 80% at 30 mpk. Besides, in the test on Abeta 40 (Abeta 40, rat brain, at 30 mpk), the “% reduction of rat brain levels” value is listed as 65% at 30 mpk.

Consider `Cc1ccc(-c2cnc3c(c2)[C@]2(COCC(N)=N2)c2cc(-c4cccnc4F)ccc2O3)cc1` [Example 90, (S)-7-(2-fluoropyridin-3-yl)-3-(p-tolyl)-2′,6′-dihydrospiro[chromeno[2,3-b]pyridine-5,3′-[1,4]oxazin]-5′-amine], for which the IC50 on BACE turned out to be 0.6 nM; with Aβ40 (setting [4]), 1.2 nM. The “% reduction of rat CSF levels” value in the test with Abeta 40 (Abeta 40, rat CSF) was 7% at 3 mpk. Besides, in the test with Abeta 40 (Abeta 40, rat brain), the “% reduction of rat brain levels” value worked out at 0% at 3 mpk.

Consider `CC(C)(F)COc1cc(F)c2c(c1)[C@]1(COCC(N)=N1)c1cc(-c3cccnc3F)ccc1O2` [Example 37A, (S)-4′-fluoro-2′-(2-fluoro-2-methylpropoxy)-7′-(2-fluoropyridin-3-yl)-2,6-dihydrospiro[[1,4]oxazine-3,9′-xanthen]-5-amine], for which the IC50 amounted to 0.2 nM at BACE and 1.3 nM with Aβ40 (setting [4]). The inhibition in vivo at 10 mg/kg in the test on Abeta 40 (setting [2]) came out at 44%; with Abeta 40 (setting [3]), 39%.

As to `NC1=N[C@@]2(CCO1)c1cc(-c3cncc(F)c3)ccc1Oc1cnc(-c3ccnc(F)c3)cc12` [Example 145, (S)-7-(5-fluoropyridin-3-yl)-3-(2-fluoropyridin-4-yl)-5′,6′-dihydrospiro[chromeno[2,3-c]pyridine-5,4′-[1,3]oxazin]-2′-amine], the figures for the IC50 on BACE and in the test with Aβ40 (setting [4]) were 5 nM and 4 nM, respectively. Further, the inhibition in vivo at 10 mg/kg in the test on Abeta 40 (setting [2]) is 78%; in the test with Abeta 40 (setting [3]), 59%.

As to `CC(C)(C)C#Cc1cnc2c(c1)[C@]1(COCC(N)=N1)c1cc(-c3cccnc3F)ccc1O2` [Example 89, (S)-3-(3,3-dimethylbut-1-yn-1-yl)-7-(2-fluoropyridin-3-yl)-2′,6′-dihydrospiro[chromeno[2,3-b]pyridine-5,3′-[1,4]oxazin]-5′-amine], the IC50 on BACE is 0.7 nM; in the test with Aβ40 (setting [4]), 0.4 nM. In addition, the inhibition in vivo at 10 mg/kg came to 50% with Abeta 40 (setting [2]) and 41% with Abeta 40 (setting [3]).

Consider `NC1=N[C@@]2(COC1)c1cc(-c3cccnc3F)ccc1Oc1cnc(N3CCC(F)(F)C3)cc12` [Example 74, (5S)-3-(3,3-difluoro-1-pyrrolidinyl)-7-(2-fluoro-3-pyridinyl)-6′H-spiro[chromeno[2,3-c]pyridine-5,3′-[1,4]oxazin]-5′-amine], for which the IC50 on BACE came to 0.4 nM; with Aβ40 (setting [4]), 0.8 nM. Further, the inhibition in vivo at 10 mg/kg in the test on Abeta 40 (setting [2]) is 47%; in the test on Abeta 40 (setting [3]) it was 26%.

As for `NC1=N[C@@]2(COC1)c1cc(-c3cccnc3F)ccc1Oc1c(F)cc(N3CCC(F)(F)CC3)cc12` [Example 86, (S)-2′-(4,4-difluoropiperidin-1-yl)-4′-fluoro-7′-(2-fluoropyridin-3-yl)-2,6-dihydrospiro[[1,4]oxazine-3,9′-xanthen]-5-amine], in the test on Aβ40 (setting [4]), the IC50 was determined as 2.6 nM. Also, the values for the inhibition in vivo at 10 mg/kg in the test with Abeta 40 (setting [2]) and with Abeta 40 (setting [3]) were 12% and 11%, respectively.

As to `NC1=N[C@@]2(COC1)c1cc(-c3cccnc3F)ccc1Oc1c2cc(-c2cncc(F)c2)nc1F` [compound 245], the IC50 on BACE and in the test on Aβ40 (setting [1]) was 0.3 nM each time.

With `NC1=N[C@@]2(CCS1)c1cc(-c3cccnc3F)ccc1Oc1cnc(Cl)cc12` [compound 199], the IC50 worked out at 90.8 nM at BACE and 392 nM in the test with Aβ40 (setting [1]).

As to `NC1=N[C@]2(CCO1)c1cc(-c3cccnc3F)ccc1Oc1c2cc(-c2cccnc2)nc1F` [compound 227], the values for the IC50 on BACE and with Aβ40 (setting [1]) were 489 nM and 101 nM, respectively.
